Source: patent US6291432A (Japan Energy Corporation, priority 1996, dated 2001)

molecular target: T1, recombinant HIV-1 protease (Human immunodeficiency virus type 1 group M subtype B, UniProt P04585); assay: HIV protease inhibition activity (enzyme activity inhibition rate); assay type: biochemical; details: 50 nM final concentration of test compound; 60 min at 37° C.
T1 construct: measured using a recombinant HIV-1 protease
Method: The protease activity was measured using a recombinant HIV-1 protease (see Biochemistry, 250 (9)-264 (1990)) and a synthesized peptide substrate. The inhibition rate was calculated by determining a peptide fragment generated by cleavage between Tyr-Pro of the synthesized substrate after the reaction of 60 min at 37° C. using a reversed phase HPLC in the presence of the test compounds in various concentrations (see, for example, Japanese Patent Application Laid-open No. 170722/1993).
Examples of the evaluation results of the HIV protease inhibition activity of the tripeptide compound of the present invention by the above-described method is shown in Table 1. […] The concentration of the test compounds in Table 1 represents the final concentration in the reaction mixture.

First: Cc1ccccc1CNC(=O)[C@H]1N(C(=O)[C@@H](O)[C@H](Cc2ccccc2)NC(=O)[C@@H](NC(=O)c2cc(=O)c3ccccc3o2)C(C)C)CSC1(C)C [Example 12, (R)-N-(2-methylbenzyl)-3-{(2S,3S)-3-[N-(2-chromonecarbonyl)-L-valyl]amino-2-hydroxy-4-phenylbutanoyl}-5,5-dimethyl-1,3-thiazolidine-4-carboxamide]
Second: CC[C@H](NC(=O)COc1ccc2ncccc2c1)C(=O)N[C@@H](Cc1ccccc1)[C@H](O)C(=O)N1CSC(C)(C)[C@H]1C(=O)NCc1ccccc1C [Example 24, (R)-N-(2-methylbenzyl)-3-{(2S,3S)-2-hydroxy-3-[(S)-2-(6-quinolinyloxyacetyl)aminobutanoyl]amino-4-phenylbutanoyl}-5,5-dimethyl-1-thiazolidine-4-carbox amide]
The “Enzyme activity inhibition rate (%) (addition concentration of 50 nM)” value of the first is lower: 97.4% for the first, 98.1% for the second.

With `CC[C@H](NC(=O)COc1cccc(N(C)C)c1)C(=O)N[C@@H](Cc1ccccc1)[C@H](O)C(=O)N1CSC(C)(C)[C@H]1C(=O)NCc1ccccc1C` [Example 25, (R)-N-(2-methylbenzyl)-3-{(2S,3S)-2-hydroxy-3-[(S)-2-(3-dimethylaminophenoxyacetyl)aminobutanoyl]amino-4-phenylbutanoyl}-5,5-dimethyl-1-thiazolidine-4-carboxamide] the “Enzyme activity inhibition rate (%) (addition concentration of 50 nM)” value was 99.9%.

same assay, conditions: 50 nM final concentration of test compound; 60 min at 37° C.; read-out: Enzyme activity inhibition rate (%) (addition concentration of 50 nM)

Compared with `Cc1ccccc1CNC(=O)[C@@H]1CSCN1C(=O)[C@@H](O)[C@H](Cc1ccccc1)NC(=O)[C@H](CC(N)=O)NC(=O)OCc1ccccc1` [Example 2, (R)-N-(2-methylbenzyl)-3-{(2S,3S)-3-[N-(benzyloxycarbonyl)-L-asparaginyl]amino-2-hydroxy-4-phenylbutanoyl}-1,3-thiazolidine-4-carboxamide], `Cc1ccccc1CNC(=O)[C@@H]1[C@@H](C)OCN1C(=O)[C@@H](O)[C@H](Cc1ccccc1)NC(=O)[C@H](CC(N)=O)NC(=O)OCc1ccccc1` [Example 9, (4S,5R)-N-(2-methylbenzyl)-3-{(2S,3S)-3-[N-(benzyloxycarbonyl)-L-asparaginyl]amino-2-hydroxy-4-phenylbutanoyl}-5-methyl-1,3-oxazolidine-4-carboxamide] is lower in inhibition at 0.05 µM: 71.7% for the first, 61.9% for the second.

Going from `Cc1ccccc1CNC(=O)[C@H]1N(C(=O)[C@@H](O)[C@H](Cc2ccccc2)NC(=O)[C@@H](NC(=O)OCc2ccccc2)C(C)C)CSC1(C)C` [Example 4, (R)-N-(2-methylbenzyl)-3-{(2S,3S)-3-[N-(benzyloxycarbonyl)-L-valyl]amino-2-hydroxy-4-phenylbutanoyl}-5,5-dimethyl-1,3-thiazolidine-4-carboxamide] to `CCOC(=O)N[C@H](C(=O)N[C@@H](Cc1ccccc1)[C@H](O)C(=O)N1CSC(C)(C)[C@H]1C(=O)NCc1ccccc1C)C(C)C` [Example 29, (R)-N-(2-methylbenzyl)-3-{(2S,3S)-2-hydroxy-3-[(S)-2-(ethoxycarbonyl)amino-3-methylbutanoyl]amino-4-phenylbutanoyl}-5,5-dimethyl-1,3-thiazolidine-4-ca rboxamide], the inhibition at 0.05 µM falls from 95.3% to 93%.

Compared with `CC1(C)SCN(C(=O)[C@@H](O)[C@H](Cc2ccccc2)NC(=O)[C@H](CC(N)=O)NC(=O)OCc2ccccc2)[C@@H]1C(=O)NCc1ccccc1Cl` [Example 5, (R)-N-(2-chlorobenzyl)-3-{(2S,3S)-3-[N-(benzyloxycarbonyl)-L-asparaginyl]amino-2-hydroxy-4-phenylbutanoyl}-5,5-dimethyl-1,3-thiazolidine-4-carboxamide], `Cc1ccccc1CNC(=O)[C@H]1N(C(=O)[C@@H](O)[C@H](Cc2ccccc2)NC(=O)[C@H](CC(N)=O)NC(=O)c2cnc3ccccc3n2)CSC1(C)C` [Example 18, (R)-N-(2-methylbenzyl)-3-{(2S,3S)-3-[N-(2-quinoxalinecarbonyl)-L-asparaginyl]amino-2-hydroxy-4-phenylbutanoyl}-5,5-dimethyl-1,3-thiazolidine-4-carboxamide] is higher in inhibition at 0.05 µM: 98.4% for the first, 98.8% for the second.

Going from `Cc1ccccc1CNC(=O)[C@H]1N(C(=O)[C@@H](O)[C@H](Cc2ccccc2)NC(=O)[C@@H](NC(=O)COc2cccc3cnccc23)C(C)C)CSC1(C)C` [Example 8, (R)-N-(2-methylbenzyl)-3-{(2S,3S)-3-[N-(5-isoquinolinyloxyacetyl)-L-valyl]amino-2-hydroxy-4-phenylbutanoyl}-5,5-dimethyl-1,3-thiazolidine-4-carboxamide] to `Cc1ccccc1CNC(=O)[C@H]1N(C(=O)[C@@H](O)[C@H](Cc2ccccc2)NC(=O)[C@@H](NC(=O)COc2cccc3ncccc23)C(C)C)CSC1(C)C` [Example 23, (R)-N-(2-methylbenzyl)-3-{(2S,3S)-2-hydroxy-3-[(S)-2-(5-quinolinyloxyacetyl)amino-3-methylbutanoyl]amino-4-phenylbutanoyl}-5,5-dimethyl-1,3-thiazolidine-4-carboxamide], the inhibition at 0.05 µM rises from 97.7% to 98.5%.

First: Cc1ccccc1CNC(=O)[C@H]1N(C(=O)[C@@H](O)[C@H](Cc2ccccc2)NC(=O)[C@@H](NC(=O)c2cc3ccccc3o2)C(C)C)CSC1(C)C [Example 11, (R)-N-(2-methylbenzyl)-3-{(2S,3S)-3-[N-(2-benzofurancarbonyl)-L-valyl]amino-2-hydroxy-4-phenylbutanoyl}-5,5-dimethyl-1,3-thiazolidine-4-carboxamide]
Second: Cc1ccccc1CNC(=O)[C@H]1N(C(=O)[C@@H](O)[C@H](Cc2ccccc2)NC(=O)[C@@H](NC(=O)c2ccc3ccccc3n2)C(C)C)CSC1(C)C [Example 13, (R)-N-(2-methylbenzyl)-3-{(2S,3S)-3-[N-(2-quinolinecarbonyl)-L-valyl]amino-2-hydroxy-4-phenylbutanoyl}-5,5-dimethyl-1,3-thiazolidine-4-carboxamide]
The inhibition at 0.05 µM of the first is higher: 97.1% for the first, 96.6% for the second.

First: Cc1ccccc1CNC(=O)[C@H]1N(C(=O)[C@@H](O)[C@H](Cc2ccccc2)NC(=O)[C@@H](NC(=O)c2nc3ccccc3s2)C(C)C)CSC1(C)C [Example 14, (R)-N-(2-methylbenzyl)-3-{(2S,3S)-3-[N-(2-benzothiazolecarbonyl)-L-valyl]amino-2-hydroxy-4-phenylbutanoyl}-5,5-dimethyl-1,3-thiazolidine-4-carboxamide]
Second: Cc1ccccc1CNC(=O)[C@H]1N(C(=O)[C@@H](O)[C@H](Cc2ccccc2)NC(=O)[C@@H](NC(=O)c2nc3ccccc3[nH]2)C(C)C)CSC1(C)C [Example 15, (R)-N-(2-methylbenzyl)-3-{(2S,3S)-3-[N-(2-benzimidazolecarbonyl)-L-valyl]amino-2-hydroxy-4-phenylbutanoyl}-5,5-dimethyl-1,3-thiazolidine-4-carboxamide]
The inhibition at 0.05 µM of the first is higher: 95.8% for the first, 92.8% for the second.

First: Cc1ccccc1CNC(=O)[C@H]1N(C(=O)[C@@H](O)[C@H](Cc2ccccc2)NC(=O)[C@@H](NC(=O)c2cnc3ccccc3n2)C(C)C)CSC1(C)C [Example 19, (R)-N-(2-methylbenzyl)-3-{(2S,3S)-3-[N-(2-quinoxalinecarbonyl)-L-valyl]amino-2-hydroxy-4-phenylbutanoyl}-5,5-dimethyl-1,3-thiazolidine-4-carboxamide]
Second: Cc1ccccc1CNC(=O)[C@H]1N(C(=O)[C@@H](O)[C@H](Cc2ccccc2)NC(=O)[C@@H](NC(=O)c2cnc3ccccc3c2)C(C)C)CSC1(C)C [Example 21, (R)-N-(2-methylbenzyl)-3-{(2S,3S)-2-hydroxy-3-[(S)-2-(3-quinolinecarbonyl)amino-3-methylbutanoyl]amino-4-phenylbutanoyl}-5,5-dimethyl-1,3-thiazolidine-4-carboxamide]
The inhibition at 0.05 µM of the first is lower: 97.3% for the first, 97.7% for the second.

Going from `COc1cccc2cc(C(=O)N[C@@H](C)C(=O)N[C@@H](Cc3ccccc3)[C@H](O)C(=O)N3CSC(C)(C)[C@H]3C(=O)NCc3ccccc3C)oc12` [Example 20, (R)-N-(2-methylbenzyl)-3-{(2S,3S)-2-hydroxy-3-[(S)-2-(7-methoxy-2-benzofurancarbonyl)aminopropanoyl]amino-4-phenylbutanoyl}-5,5-dimethyl-1,3-thiazolidine-4-carboxamide] to `Cc1ccccc1CNC(=O)[C@H]1N(C(=O)[C@@H](O)[C@H](Cc2ccccc2)NC(=O)[C@H](C)NC(=O)COc2cccc(N(C)C)c2)CSC1(C)C` [Example 26, (R)-N-(2-methylbenzyl)-3-{(2S,3S)-2-hydroxy-3-[(S)-2-(3-dimethylaminophenoxyacetyl)aminopropanoyl]amino-4-phenylbutanoyl}-5,5-dimethyl-1,3-thiazolidine-4-carboxamide], the inhibition at 0.05 µM rises from 97.6% to 99.9%.

Going from `Cc1ccccc1CNC(=O)[C@H]1N(C(=O)[C@@H](O)[C@H](Cc2ccccc2)NC(=O)[C@@H](NC(=O)COc2cccc(N(C)C)c2)C(C)C)CSC1(C)C` [Example 22, (R)-N-(2-methylbenzyl)-3-{(2S,3S)-2-hydroxy-3-[(S)-2-(3-dimethylaminophenoxyacetyl)amino-3-methylbutanoyl]amino-4-phenylbutanoyl}-5,5-dimethyl-1,3-thi azolidine-4-carboxamide] to `COCCOC(=O)N[C@H](C(=O)N[C@@H](Cc1ccccc1)[C@H](O)C(=O)N1CSC(C)(C)[C@H]1C(=O)NCc1ccccc1C)C(C)C` [Example 30, (R)-N-(2-methylbenzyl)-3-{(2S,3S)-2-hydroxy-3-[(S)-2-(methoxyethoxycarbonyl)amino-3-methylbutanoyl]amino-4-phenylbutanoyl}-5,5-dimethyl-1,3-thiazolidine-4-carboxamide], the inhibition at 0.05 µM falls from 97.6% to 94.2%.
